25 molecules from patent US12331058B2, “SHP2 and CDK4/6 dual-target inhibitory compound and pharmaceutical composition containing the same” (CHINA PHARMACEUTICAL UNIVERSITY, priority 2021, dated 2025) can be followed below.

pIC50: −log10 of the molar value. Where two headings read alike, the source gives them in different places.

Assay [1] addresses CDK4 (Homo sapiens, UniProt P11802). The experiment in a line: CDK4 enzyme activity test in vitro. The class given is biochemical. The note with it: Caliper EZ Reader II conversion.
Experimental: CDK4 Enzyme Activity Test In Vitro
(§6) The compound is dissolved in 100% DMSO to prepare into a 30 mM storage solution, which is stored in −20° C. refrigerator in the dark.
(1) 1×Kinase buffer is prepared.
(2) The preparation of concentration gradient of the compound: tested compound is tested at an initial concentration of 30000 nM according to a customer's request, diluted into a 100% DMSO solution at a 100-fold final concentration in a 384 source plate, diluted by 3-fold with 10 concentrations, 250 nL of compound with a 100-fold final concentration is transferred to the target plate of 384-well-plate by using a dispenser Echo 550.
(3) A Kinase solution with a 2.5-fold final concentration is prepared by using a 1×Kinase buffer.
(4) 10 μL of kinase solution with a 2.5-fold final concentration is added to the compound wells and the positive control wells, respectively; 10 μL of 1×Kinase buffer is added to the negative control wells.
(5) The kinase solution is centrifugated at 1000 rpm for 30 seconds, and incubated at the room temperature for 10 minutes after the reaction plate is shaken and mixed uniformly.
(7) The reaction is initiated by adding 15 μL of the mixed solution of ATP and substrate at a 5/3-fold final concentration.
(8) The 384-well plate is centrifuged at 1000 rpm for 30 seconds, and incubated at the room temperature for 180 minutes after shaking and mixing uniformly.
(9) The kinase reaction is terminated by adding 30 μL of termination detection solution, centrifuged at 1000 rpm for 30 seconds with shaking and mixing uniformly.
(10) The conversion is read by using Caliper EZ Reader II.
Calculation Formula is as follows:
Conversion %_sample denotes a conversion reading of the sample; Conversion % min denotes an average value for negative control wells, represents a conversion reading without enzyme wells; Convesion %_max denotes an average value for positive control wells, represents a conversion reading without compound inhibition wells.
Assay [2] deals with T1, SHP2 (Homo sapiens, UniProt Q06124).
T1 sequence (Q06124 1-593): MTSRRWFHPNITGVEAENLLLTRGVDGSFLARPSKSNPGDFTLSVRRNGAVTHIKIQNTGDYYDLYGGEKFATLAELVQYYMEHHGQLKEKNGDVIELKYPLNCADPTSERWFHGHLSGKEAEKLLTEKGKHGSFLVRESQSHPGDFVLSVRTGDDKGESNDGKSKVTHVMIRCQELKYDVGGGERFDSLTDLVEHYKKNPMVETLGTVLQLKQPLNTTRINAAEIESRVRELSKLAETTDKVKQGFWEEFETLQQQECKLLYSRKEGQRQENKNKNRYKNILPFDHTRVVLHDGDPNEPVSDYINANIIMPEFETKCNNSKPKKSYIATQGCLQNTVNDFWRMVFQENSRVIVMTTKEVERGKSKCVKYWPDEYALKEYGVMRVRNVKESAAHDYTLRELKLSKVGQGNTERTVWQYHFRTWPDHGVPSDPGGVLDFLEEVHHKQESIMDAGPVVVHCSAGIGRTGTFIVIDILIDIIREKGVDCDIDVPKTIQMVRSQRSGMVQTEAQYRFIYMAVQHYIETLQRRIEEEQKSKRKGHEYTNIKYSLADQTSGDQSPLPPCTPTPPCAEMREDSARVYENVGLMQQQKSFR
In words: SHP2 enzyme activity test in vitro.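 Further: IC50 derived by variable-slope curve fitting of percent inhibition of SHP2 enzymatic activity plotted against log compound concentration.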
Experimental: SHP2 Enzyme Activity Test In Vitro
SHP2 enzyme activity of the compounds in the above examples are tested as follows.
as §6
The log value for concentration is taken as X-axis and the percent inhibition is taken as Y-axis, and the log (inhibitor) vs. response variable slope of the analysis software GraphPad Prism 5 is used to fit the dose-response curve to obtain the IC50 values for each compound on enzyme activity.

Assay [3] has as its system MDA-MB-231 cells. The experiment in a line: In vitro antiproliferative activity (MTT), MDA-MB-231. It is filed as cell-based. The note with it: Homo sapiens, MDA-MB-231, 72 h, 3 days of incubation. As for the experimental part: (§1) In Vitro Antiproliferative Activity of Compound 1. Experimental Procedure
(§2) (4) MDA-MB-231, MDA-MB-468 or EMT6 cells are taken out of a liquid nitrogen tank, immediately placed in a constant temperature water bath at 37° C. and melted by shaking, then the cells are poured into a culture flask. The culture solution (containing 10% of fetal bovine serum) is added for dilution. The diluted culture medium is transferred into a centrifuge tube, centrifuged at 1000 r/min for 5 minutes. The supernatant is discarded and fresh culture medium is added for blowing and mixing uniformly. The mixture is transferred into a culture bottle, and cultured in a culture box with a concentration of 5% CO2 at 37° C. When the cells are adhered to the wall and almost fully paved at the bottle bottom, the passage begins. A little amount of fresh culture medium (containing 10% of fetal calf serum) is added to terminate the digestion. The liquid in the culture bottle is poured out, and the culture bottle is washed twice with PBS. The fresh culture medium is added to blow and mix uniformly, and divided evenly into two culture bottles for continuing the culture.
(§3) (5) Cells in the logarithmic phase are taken, and the old culture medium are poured out. The trypsin solution is added for digestion for 3 minutes, and the fresh culture medium containing 10% of fetal bovine serum is added for terminating digestion. The solution is transferred into a centrifuge tube, centrifuged at 1000 r/min for 5 minutes, and the supernatant is discarded. The cells are counted by adding a medium to prepare into a cell suspension. After counting, cells are seeded in 96-well plates at a cell concentration of 5000-10000 cells per well. The 96-well plate with the spread cells is placed in a 5% CO2 incubator at 37° C. for a continuous culture for 24 hours. The drugs are diluted in gradient to 90μ mol/L, 30μ mol/L, 10μ mol/L, […], 0.37μ mol/L with medium and then added to 96-well plates at 100 μL per well, with three multiplex wells per concentration. The control group is added with medium containing solvent with the corresponding concentration, the zeroing hole is added with blank medium with the same volume, and the blank medium is placed in a culture box with 5% CO2 and 37° C. for 3 days of incubation with a replacement of the medium every two days. 20 μL of MTT (5 mg/mL) is added to each well. After mixing uniformly, the mixture is incubated in a 5% CO2 incubator at 37° C. for 4 hours in the absence of light. With a removement of the liquid in the 96-well plate and an addition of 150 μl of DMSO to each well, the mixture is placed on a micro-shaker and shaken to completely dissolve the crystals at the bottom. Subsequently, the 96-well plate is placed in an microplate reader for detection and the absorbance is measured at 490 nm.
(§4) Curve is drawn and inhibition rate of drug to cell and IC50 are calculated. Inhibition ratio=[(average OD value for control group-average OD value for experimental group)/(average OD value for control group-average OD value for blank control group)]×100%. 3. Experimental Results
(§5) The inhibitory activities of the compounds on MDA-MB-231, MDA-MB-468 and EMT6 cell lines are as follows: […]

The subject of assay [4] is MDA-MB-468 cells. The experiment in a line: In vitro antiproliferative activity (MTT), MDA-MB-468. It is filed as cell-based. The note with it: Homo sapiens, MDA-MB-468, 72 h, 3 days of incubation. As for the experimental part: as §1, §2, §3, §4, §5
Assay [5] has as its system EMT6 cells. In words: In vitro antiproliferative activity (MTT), EMT6. The class given is cell-based. The note with it: Mus musculus, EMT6, 72 h, 3 days of incubation. As for the experimental part:
as §1, §2, §3, §4, §5

The subject of assay [6] is SHP2 and CDK4/6. The experiment in a line: In vitro enzyme activity and antiproliferative activity tests (summary statement).

CDK4, sequence (P11802 whole entry): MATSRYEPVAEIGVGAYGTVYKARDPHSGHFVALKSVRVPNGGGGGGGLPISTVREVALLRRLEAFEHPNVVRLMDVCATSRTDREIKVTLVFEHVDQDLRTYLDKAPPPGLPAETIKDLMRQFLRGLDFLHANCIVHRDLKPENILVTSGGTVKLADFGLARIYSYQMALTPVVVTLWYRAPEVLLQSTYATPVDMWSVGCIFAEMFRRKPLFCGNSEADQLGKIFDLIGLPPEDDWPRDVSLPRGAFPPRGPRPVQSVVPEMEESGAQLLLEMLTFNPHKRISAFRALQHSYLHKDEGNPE
CDK4, sequence (P30281 whole entry partner): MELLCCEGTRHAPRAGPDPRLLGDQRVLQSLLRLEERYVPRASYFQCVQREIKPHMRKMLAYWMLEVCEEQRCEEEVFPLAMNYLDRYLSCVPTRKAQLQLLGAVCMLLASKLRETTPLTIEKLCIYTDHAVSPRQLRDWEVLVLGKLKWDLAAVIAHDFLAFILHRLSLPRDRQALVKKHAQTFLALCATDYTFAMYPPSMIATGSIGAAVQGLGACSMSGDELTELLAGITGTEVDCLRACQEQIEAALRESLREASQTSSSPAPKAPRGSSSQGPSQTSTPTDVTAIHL

As usually defined, the pIC50 is the IC50 on a negative log10 scale, so that one unit is a factor of ten. With `Cc1nc2c(F)cc(-c3nc(Nc4cc(Sc5cnc(N6CCC7(CC6)CO[C@@H](C)[C@H]7N)cn5)c(Cl)cn4)ncc3F)cc2n1C(C)C` [Compound 17], the negative logarithm of the IC50 (pIC50) in assay [1] and in assay [2] was less than 6.00 in each case.

Consider `Cc1nc2c(F)cc(-c3nc(Nc4ccc(Sc5cnc(N6CCC7(CC6)Cc6ccccc6[C@H]7N)cn5)c(Cl)n4)ncc3F)cc2n1C(C)C` [Compound 24], for which the negative-log IC50 (pIC50) in assay [1] and in assay [2] was less than 6.00 throughout.

With `CN(C)C(=O)c1cc2cnc(Nc3ccc(Sc4cnc(N5CCC(C)(N)CC5)cn4)cn3)nc2n1C1CCCC1` [Compound 2], the negative-log IC50 (pIC50) was 8.05 in assay [1] and less than 6.00 in assay [2].

For the molecule `CN(C)C(=O)c1cc2cnc(Nc3ccc(Sc4cnc(N5CCC(C)(N)CC5)cn4)c(Cl)n3)nc2n1C1CCCC1` [Compound 16], the negative logarithm of the IC50 (pIC50) in assay [2] is less than 6.00.

In the case of `CN(C)C(=O)c1cc2cnc(Nc3nccc(Sc4cnc(N5CCN([C@H]6Cc7ccccc7[C@H]6N)CC5)cn4)c3Cl)nc2n1C1CCCC1` [Compound 8], the values for the pIC50 in assay [1] and in assay [2] were 6.04 and less than 6.00, respectively.

With `CN(C)C(=O)c1cc2cnc(Nc3ccc(Sc4cnc(N5CCC6(CC5)Cc5ccccc5[C@H]6N)cn4)c(Cl)n3)nc2n1C1CCCC1` [Compound 9], the pIC50 in assay [1] was 6.27; in assay [2], 7.44.

With `CN(C)C(=O)c1cc2cnc(Nc3nccc(Sc4cnc(N5CC[C@H](N)c6ccccc6C5)cn4)c3Cl)nc2n1C1CCCC1` [Compound 6], the pIC50 in assay [1] was less than 6.00; in assay [2], 6.13.

As to `CN(C)C(=O)c1cc2cnc(Nc3nccc(Sc4cnc(N5CCC(C)(N)CC5)cn4)c3Cl)nc2n1C1CCCC1` [Compound 4], the pIC50 in assay [1] was 6.36; in assay [2], 7.52.

In general, IC50 refers to the concentration that gives 50% inhibition. A lower IC50 goes with greater potency. `CCN1CCN(Cc2ccc(Nc3ncc(F)c(-c4cc(F)c5nc(C)n(C(C)C)c5c4)n3)nc2)CC1` [Abemaciclib, reference compound]: the IC50 in assay [3] is greater than 20 µM; in assay [4], greater than 20 µM; in assay [5] it was 4.2 µM.

As for `Cc1nc2c(F)cc(-c3nc(Nc4nccc(Sc5cnc(N6CCC7(CC6)Cc6ccccc6[C@H]7N)cn5)c4Cl)ncc3F)cc2n1C(C)C` [Compound 10], the IC50 is 4.4 µM in assay [3], 5.9 µM in assay [4] and 1.1 µM in assay [5]. Moreover, the double-target inhibition activity entry in assay [6] is on record as “better double-target inhibition activity”. Besides, in assay [2], the pIC50 was 8.00.

For the molecule `Cc1nc2c(F)cc(-c3nc(Nc4cnc(Sc5cnc(N6CCC7(CC6)CO[C@@H](C)[C@H]7N)cn5)c(Cl)c4)ncc3F)cc2n1C(C)C` [Compound 13], the pIC50 was 7.96 in assay [1] and 6.67 in assay [2].

Regarding `Cc1nc2c(F)cc(-c3nc(Nc4nccc(Sc5cnc(N6CCC7(CC6)CO[C@@H](C)[C@H]7N)cn5)c4C#N)ncc3F)cc2n1C(C)C` [Compound 19], the pIC50 in assay [1] is 8.52; in assay [2], 8.05. Also, the values for the concentration for half-maximal inhibition (IC50) in assay [3], in assay [4] and in assay [5] were 9.6 µM, 3.7 µM and 0.7 µM, respectively. Besides, the double-target inhibition activity result in assay [6] is recorded as “better double-target inhibition activity”.

Consider `Cc1nc2c(F)cc(-c3nc(Nc4ccc(Sc5cnc(N6CCC(C)(N)CC6)cn5)c(C#N)n4)ncc3F)cc2n1C(C)C` [Compound 11], for which the figures for the negative logarithm of the IC50 (pIC50) in assay [1] and in assay [2] were 7.51 and less than 6.00, respectively.

Turning to `Cc1nc2c(F)cc(-c3nc(Nc4ccc(Sc5cnc(N6CCC7(CC6)CO[C@@H](C)[C@H]7N)cn5)c(Cl)c4)ncc3F)cc2n1C(C)C` [Compound 23], the IC50 in assay [3] was determined as 3.2 µM; in assay [4], 10.5 µM; in assay [5] it was 1.7 µM. For the same molecule, the double-target inhibition activity entry in assay [6] is recorded as “better double-target inhibition activity”. The negative logarithm of the IC50 (pIC50) in assay [2] (read-out: SHP2 IC50, fluorescence Ex355/Em460, activation peptide) was 7.21.

`CN(C)C(=O)c1cc2cnc(Nc3ccc(Sc4cnc(N5CCC6(CC5)Cc5ccccc5[C@H]6N)cn4)c(Cl)c3)nc2n1C1CCCC1` [Compound 3]: the results for the negative-log IC50 (pIC50) in assay [1] and in assay [2] were less than 6.00 and 7.24, respectively.

For the molecule `CN(C)C(=O)c1cc2cnc(N(c3ncc4cc(C(=O)N(C)C)n(C5CCCC5)c4n3)c3nccc(Sc4cnc(N5CC[C@H](N)c6ccccc6C5)cn4)c3Cl)nc2n1C1CCCC1` [Compound 7], the pIC50 in assay [1] and in assay [2] was less than 6.00 in each case.

Regarding `Cc1nc2c(F)cc(-c3nc(Nc4cccc(Sc5cnc(N6CCC7(CC6)CO[C@@H](C)[C@H]7N)cn5)c4Cl)ncc3F)cc2n1C(C)C` [Compound 25], the pIC50 was 8.10 in assay [1] and 7.82 in assay [2]. The values for the IC50 in assay [3], in assay [4] and in assay [5] were 4.6 µM, 9.1 µM and 0.6 µM, respectively. Moreover, the double-target inhibition activity result in assay [6] is reported as “better double-target inhibition activity”.

Consider `Cc1nc2c(F)cc(-c3nc(Nc4ccc(Sc5cnc(N6CCC7(CC6)CO[C@@H](C)[C@H]7N)cn5)c(C#N)n4)ncc3F)cc2n1C(C)C` [Compound 12], for which the negative-log IC50 (pIC50) was 6.85 in assay [1] and less than 6.00 in assay [2].

For the molecule `C[C@@H]1OCC2(CCN(c3cnc(Sc4ccnc(N)c4Cl)c(N)n3)CC2)[C@@H]1N` [TNO155, reference compound], the IC50 is greater than 20 µM in assay [3], greater than 20 µM in assay [4] and 7 µM in assay [5].

For the molecule `Cc1nc2c(F)cc(-c3nc(Nc4cc(Cl)c(Sc5cnc(N6CCC7(CC6)CO[C@@H](C)[C@H]7N)cn5)cn4)ncc3F)cc2n1C(C)C` [Compound 21], the results for the negative-log IC50 (pIC50) in assay [1] and in assay [2] were 8.05 and less than 6.00, respectively.

For `CN(C)C(=O)c1cc2cnc(Nc3nccc(Sc4cnc(N5CCC6(CC5)Cc5ccccc5[C@H]6N)cn4)c3Cl)nc2n1C1CCCC1` [Compound 5], the figures for the negative-log IC50 (pIC50) in assay [1] and in assay [2] were less than 6.00 and 8.40, respectively.

`Cc1nc2c(F)cc(-c3nc(Nc4ccc(Sc5cnc(N6CCC7(CC6)CO[C@@H](C)[C@H]7N)cn5)c(Cl)n4)ncc3F)cc2n1C(C)C` [Compound 15]: the pIC50 in assay [1] was 6.84; in assay [2], less than 6.00.

Consider `Cc1nc2c(F)cc(-c3nc(Nc4cc(Sc5cnc(N6CCC7(CC6)CO[C@@H](C)[C@H]7N)cn5)ccn4)ncc3F)cc2n1C(C)C` [Compound 26], for which the pIC50 is 7.77 in assay [1] and 7.32 in assay [2]. Besides, the concentration for half-maximal inhibition (IC50) in assay [3] turned out to be 5.1 µM; in assay [4] it was 9.6 µM; in assay [5] it was 1.1 µM. Also, in assay [6], the double-target inhibition activity entry was “better double-target inhibition activity”.

As for `Cc1nc2c(F)cc(-c3nc(Nc4ccc(Cl)c(Sc5cnc(N6CCC7(CC6)CO[C@@H](C)[C@H]7N)cn5)n4)ncc3F)cc2n1C(C)C` [Compound 20], the negative-log IC50 (pIC50) in assay [1] was 6.91; in assay [2], 6.22.

`CN(C)C(=O)c1cc2cnc(Sc3cnc(N4CCC(C)(N)CC4)cn3)cc2n1C1CCCC1` [Compound 1]: the negative-log IC50 (pIC50) in assay [1] and in assay [2] was less than 6.00 in each case.
